Measured values reported in patent publication US10265276B2, “Pharmaceutical composition for preventing or treating arthritis or inflammatory disease containing 2-methoxy-4-(3-(4-methoxyphenyl)propyl-1-en-1-yl)phenol as active ingredient” (CHUNGBUK NATIONAL UNIVERSITY INDUSTRY-ACADEMIC COOPERATION …, priority 2015, dated 2019).

Columns and labels:
RAW 264.7 cells = assay: Anti-inflammatory effect in TNF-α-treated RAW 264.7 cells; assay type: cell-based, mouse; conditions: TNF-α (10 ng/mL), 24 hours
Experimental: 6. Nitrite assay: RAW 264.7 cells were added to a 96-well plate at a density of 1×10^4 cells/well, and LPS […] and TNF-α (10 ng/mL) were added or not added for 24 hours in the presence or absence of various concentrations of MMPP. Accumulation of nitrites in a supernatant was analyzed using a nitric oxide assay kit commercially available from iNtRON Biotechnology (Seongnam, Korea).
8. ROS Assay: An ROS assay was carried out using an ELISA kit (commercially available from Cell Biolabs Inc.).
In Experimental Example 7, an experiment regarding an anti-inflammatory effect of MMPP in TNF-α-treated RAW 264.7 cells was performed.
It was confirmed that, when RAW 264.7 cells were treated with TNF-α (10 ng/mL) in combination with MMPP […] for 24 hours, the NO and ROS generation (FIG. 8(A)), the iNOS and COX2 expression (FIG. 8(B)), and the STAT3 and NF-κB activities (FIGS. 8(C) and (D)) induced by treatment with TNF-α (10 ng/mL) were reduced in the RAW 264.7 cells.

synoviocytes = assay: Anti-inflammatory effect in LPS- or TNF-α-treated synoviocytes; assay type: cell-based, human; conditions: LPS or TNF-α (10 ng/mL), 24 hours
Text: 4. Human synoviocyte culture: The research protocol and human tissue cells used in the study were approved by the College of Medicine of Soon Chun Hyang University Medical Center. Cells were obtained from patients with rheumatoid arthritis diagnosed according to the American College of Rheumatology classification criteria revised in 1987. Synovial tissue samples are obtained from knee joints of patients with long-term rheumatoid arthritis (two males and two females, an average age of 65±21.3 years, and an average onset period of 10 years or more). FLS (Fibroblast-like synoviocytes) were cultured as described above. Simply, the FLSs were cultured in a culture dish (Nalge Nunc International, Rochester, N.Y., USA) containing a DMEM culture medium (Gibco Life Technologies) supplemented with […] FBS (Gibco Life Technologies) and 50 U·mL^−1 penicillin/streptomycin. For all cultures and an incubator, the culture was performed at 37° C. in an incubator under a 5% CO2 atmosphere. The medium was replaced every three days. The cells between 5th and 10th passage were used.
In Experimental Example 8, an experiment was performed to check an anti-inflammatory effect of MMPP in synoviocytes treated with LPS and TNF-α.
It was confirmed that the LPS […]- or TNF-α (10 ng/mL)-induced NO and ROS generations (FIG. 9(A)), the iNOS and COX2 expression (FIG. 9(B)), and STAT3 and NF-κB activities (FIGS. 9(C) and (D)) were reduced in the synoviocytes in the case of groups in which the […] were treated with LPS […] or TNF-α (10 ng/mL) in combination with MMPP […] for 24 hours.

STAT3 = STAT3 phosphorylation in LPS-treated RAW 264.7 cells; assay type: cell-based, mouse
Experimental: 12. Western blotting assay: A whole cell lysate, a cytosolic extract, and a nuclear extract were obtained. SDS-PAGE and Western blotting assays were carried out as disclosed in published Documents 1 and 2. Simply speaking, the cells were seeded in a 6-well plate at a density of 5×10^5 cells/well, and cultured for 24 hours. Thereafter, the cells were treated with MMPP or DMSO for 24 hours. After the treatment, the cells were washed twice with PBS, and then lyzed. Proteins of the lyzed cells were separated on 10 to 15% SDS-PAGE. The proteins were transferred to a PVDF membrane, and the PVDF membrane was blocked at room temperature for 2.5 hours in a TB S/T buffer containing 5% skim milk. The membrane to which the proteins were transferred was analyzed using, as primary antibodies, murine monoclonal antibodies against Cdk2, Cdk4, Cdk6, cyclin B1, cyclin D1, cyclin E1, Bcl-2, Bax, caspase-3, caspase-8, STAT3, phspho-STAT3, (3-actin, and histone hl. Expression of the proteins was visualized using a chemiluminescence reagent (Amersham Pharmacia Biotech, Inc., Buckinghamshire, UK), and measured using a digital chemiluminescence imaging system equipped with a CCD camera (Fusion-FX, Fisher BioTech, Ltd., Wembley, Australia). […]

mutant STAT3 (T456A) = target: T1, mutant STAT3 (T456A) (Mus musculus, UniProt P42227, T456A); assay: Pull-down assay with mutant STAT3; assay type: binding; conditions: compared to the STAT3
T1 construct: A coding region of Mus musculus STAT3 was amplified by PCR using full-length Mus musculus STAT3 cDNA as a template; host or cells: RAW264.7
Text: As a method for isolating a protein complex, a pull-down assay is an assay for checking a protein-protein interaction. To identify a protein interacting with MMPP, MMPP was bound to […] epoxy-activated Sepharose 6B (Sigma, St Louis, Mo., United States).
2. Construction of plasmid: A coding region of Mus musculus STAT3 was amplified by PCR using full-length Mus musculus STAT3 cDNA as a template. The purified PCR product was doubly digested with EcoRI and XhoI, and then subcloned into a pcDNA3.1 vector. The pcDNA3.1 plasmid includes a cytomegalovirus promoter, a pUC origin of replication, and an ampicillin-resistant gene. STAT3 (T456A) mutagenesis was performed at Cosmo Genetech Co., Ltd. (Seoul, Korea), and the mutations were systematically checked by sequencing. RAW264.7 cells were seeded in a 24-well plate at a density of 1×10^5 cells/well. The cells were grown for 24 hours to reach 90% confluence, and the cells were infected with the mutant STAT3 (T456A) plasmid (Cosmo Genetech Co., Ltd., Seoul, Korea) using a mixture of the plasmid and lipofectamine in PTI-MEN. The infected cells were treated with LPS (1 μg/mL), and different concentrations of MMPP (1 to 4 μg/mL) for 12 hours. The prepared samples were subjected to Western blotting.
To check the interaction between MMPP and STAT3, a pull-down assay was carried out. MMPP was conjugated to epoxy-activated Sepharose 6B. […]

T1 sequence (P42227 whole entry T456A): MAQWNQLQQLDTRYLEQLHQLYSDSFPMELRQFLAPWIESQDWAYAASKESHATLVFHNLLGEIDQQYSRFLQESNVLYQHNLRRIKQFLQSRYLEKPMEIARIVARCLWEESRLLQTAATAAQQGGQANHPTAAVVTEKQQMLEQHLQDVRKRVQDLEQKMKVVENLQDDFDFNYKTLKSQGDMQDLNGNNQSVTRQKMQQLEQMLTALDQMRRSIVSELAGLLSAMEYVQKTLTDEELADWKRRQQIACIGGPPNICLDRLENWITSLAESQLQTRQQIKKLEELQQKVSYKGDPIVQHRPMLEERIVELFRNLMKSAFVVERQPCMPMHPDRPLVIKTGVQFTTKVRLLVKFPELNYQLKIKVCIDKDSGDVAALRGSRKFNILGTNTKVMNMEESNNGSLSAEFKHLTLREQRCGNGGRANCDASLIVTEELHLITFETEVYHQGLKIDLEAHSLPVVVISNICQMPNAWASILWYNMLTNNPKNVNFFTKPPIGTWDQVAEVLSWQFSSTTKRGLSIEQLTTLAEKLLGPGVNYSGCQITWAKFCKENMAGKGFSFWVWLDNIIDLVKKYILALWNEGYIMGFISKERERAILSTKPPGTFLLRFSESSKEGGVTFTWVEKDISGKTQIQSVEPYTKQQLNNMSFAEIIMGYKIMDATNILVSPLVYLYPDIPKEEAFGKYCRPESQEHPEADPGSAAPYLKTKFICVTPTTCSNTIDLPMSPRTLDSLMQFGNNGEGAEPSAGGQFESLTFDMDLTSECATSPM

COc1ccc(C/C=C/c2ccc(O)c(OC)c2)cc1 [MMPP, 2-methoxy-4-(3-(4-methoxyphenyl)prop-1-en-1-yl)phenol]
NO and ROS generation (RAW 264.7 cells): reduced | STAT3 and NF-κB activities (RAW 264.7 cells): reduced | iNOS and COX2 expression (RAW 264.7 cells): reduced | NO and ROS generations (synoviocytes): reduced | STAT3 and NF-κB activities (synoviocytes): reduced | iNOS and COX2 expression (synoviocytes): reduced | LPS-induced phosphorylation of STAT3 (STAT3): inhibited | binding of MMPP to mutant STAT3 Thr456A (mutant STAT3 (T456A)): reduced
